Columns and labels:
[1] = literature values [11-13]; cited from earlier work
insulin = insulin (Homo sapiens, UniProt P01308); assay: Inhibition of peptide and protein aggregation (insulin precipitation); type: physicochemical; conditions: insulin 0.4 mg/ml, surfactant 1.4 mg/ml, pH 6.8 or 7.4, 25 and 40° C., 2-12 weeks
From the text: Inhibition of peptide and protein aggregation is crucial for the physical stability and safety, particularly for pharmaceutics for injection (injectabilia). Therefore, surfactants are normally applied as inhibitors of peptide and protein aggregation in such formulations. The ability, of a C16G8/14 mixture to inhibit peptide and protein aggregation in solution was investigated using insulin as model peptide.

Chain of insulin (P01308 25-54 limits assumed, species assumed): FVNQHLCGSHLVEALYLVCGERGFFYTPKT
Chain of insulin (P01308 90-110 limits assumed, species assumed): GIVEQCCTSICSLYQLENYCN

Structure (SMILES) | Krafft point [1] [°C] | Inhibition of insulin precipitation (visual inspection) (insulin)
CCCCCCCCCCCCO[C@@H]1O[C@H](CO)[C@@H](O)[C@H](O)[C@H]1O [C12G1] | 38 | –
CCCCCCCCCCCCCCO[C@@H]1O[C@H](CO)[C@@H](O[C@@H]2O[C@@H](CO)[C@H](O)[C@@H](O)[C@@H]2O)[C@H](O)[C@H]1O (stereo in doubt) [C14G2, tetradecylmaltoside] | 32 | unable to inhibit precipitation, even under non-accelerated conditions

Source: patent US10857232B2, “Surfactant composition” (Enza Biotech AB, priority 2013, dated 2020)
